Assay results from patent publication US11236087B2, “Highly active pyrazolo-piperidine substituted indole-2-carboxamides active against the hepatitis B virus (HBV)” (AiCuris GmbH & Co. KG, priority 2017, dated 2022).
Like-named read-outs stand apart in the source and are kept apart here.

Experiments:
[1] = test system: HBV; experiment: Determination of HBV DNA from the supernatants of HepAD38 cells (anti-HBV activity); assay type: cell-based, hepatitis B virus; settings: HBV DNA in HepAD38 supernatant, day 6, qPCR, read-out: Cell Activity (EC50)
In short: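 HepAD38 cells, tetracycline withdrawn to induce HBV, treated with serial half-log compound dilutions; on day 6 HBV DNA purified from filtered supernatant and quantified by real-time PCR against HBV plasmid standards; EC50 from relative copy numbers by non-linear regression, three experiments in triplicate.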

[2] = test system: HepAD38 cells; experiment: Cell viability assay (AlamarBlue) in HepAD38 cells; settings: HepAD38 cells with 0.3 μg/ml tetracycline, six days incubation, AlamarBlue
[3] = target: T1, HBV core protein (UniProt P03146); experiment: Biochemical capsid assembly assay (fluorescence quenching); set-up: species or system hepatitis B virus
T1 construct: fused on or other part: BODIPY-FL maleimide label on the C-terminal Cys150
In short: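 Purified E. coli-expressed HBV core protein (aa 1-149 plus Cys150), BODIPY-FL maleimide-labelled, at 1.0-2.0 μM in 50 mM HEPES pH 7.5 with 0.5% DMSO was used. Compounds were tested at 8 concentrations (0.5-log dilutions from 100, 31.6 or 10 μM). Assembly was started with NaCl ([…]), and fluorescence quenching was read after 6 min (ex 477/em 525 nm). EC50 was determined by non-linear regression.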

[4] = Cell viability assay (AlamarBlue) in HepAD38 cells; settings: human
[5] = BODIPY-FL labelled core protein, 300 μM NaCl, read 6 min after start; read-out: Assembly Activity (IC50)
[6] = read-out: Assembly Activity (IC50); BODIPY-FL labelled core protein, 300 μM NaCl, read 6 min after start

T1 sequence (P03146 whole entry, looked up, the tested form may be a part): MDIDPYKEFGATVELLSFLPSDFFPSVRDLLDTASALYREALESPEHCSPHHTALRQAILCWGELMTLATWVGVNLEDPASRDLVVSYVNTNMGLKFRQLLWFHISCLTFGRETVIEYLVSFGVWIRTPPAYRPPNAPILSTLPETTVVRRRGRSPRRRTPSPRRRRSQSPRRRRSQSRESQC

Compound	EC50 [1] [µM]	CC50 [2] [µM]	IC50 [3, 5] [µM]	EC50 ([1]; Hepatitis B virus, 144 h) [µM]	IC50 [3, 6] [µM]	CC50 at 6 days [4] [µM]
3-{1-[5-(1H-indole-2-carbonyl)-2H,4H,5H,6H,7H-pyrazolo[4,3-c]pyridin-3-yl]-N-methylformamido}-N-methanesulfonylpropanamide [Example 244]	< 100	> 10	–	–	–	–
5-(4-chloro-5-fluoro-1H-indole-2-carbonyl)-N-[1-(methoxymethyl)cyclopropyl]-N-methyl-1H,4H,5H,6H,7H-pyrazolo[4,3-c]pyridine-3-carboxamide [Example 268]	< 1	> 10	< 5	–	–	–
5-[4-(1,1-difluoroethyl)-1H-indole-2-carbonyl]-N-[1-(methoxymethyl)cyclopropyl]-N-methyl-1H,4H,5H,6H,7H-pyrazolo[4,3-c]pyridine-3-carboxamide [Example 301]	< 1	> 10	< 5	–	–	–
CCOCC1(N(C)C(=O)c2[nH]nc3c2CN(C(=O)c2cc4cccc(F)c4[nH]2)CC3)CC1 [Example 367, N-[1-(ethoxymethyl)cyclopropyl]-5-(7-fluoro-1H-indole-2-carbonyl)-N-methyl-2H,4H,5H,6H,7H-pyrazolo[4,3-c]pyridine-3-carboxamide]	–	–	–	< 1	< 5	> 10
CN(C(=O)c1[nH]nc2c1CN(C(=O)c1cc3ccccc3[nH]1)CC2)C1(c2cocn2)CC1 [Example 368, 5-(1H-indole-2-carbonyl)-N-methyl-N-[1-(1,3-oxazol-4-yl)cyclopropyl]-2H,4H,5H,6H,7H-pyrazolo[4,3-c]pyridine-3-carboxamide]	–	–	–	< 1	< 5	> 10
N-(2,3-dihydroxypropyl)-5-(1H-indole-2-carbonyl)-N-methyl-2H,4H,5H,6H,7H-pyrazolo[4,3-c]pyridine-3-carboxamide [Example 253]	1 to 25	> 10	5 to 10	–	–	–
N-[1-(methoxymethyl)cyclopropyl]-N-methyl-5-(4-methyl-1H-indole-2-carbonyl)-1H,4H,5H,6H,7H-pyrazolo[4,3-c]pyridine-3-carboxamide [Example 260]	< 1	> 10	< 5	–	–	–
N-ethyl-5-(1H-indole-2-carbonyl)-N-(2-methoxyethyl)-1H,4H,5H,6H,7H-pyrazolo[4,3-c]pyridine-3-carboxamide [Example 294]	< 1	> 10	5 to 10	–	–	–
tert-butyl N-(2-{1-[5-(1H-indole-2-carbonyl)-2H,4H,5H,6H,7H-pyrazolo[4,3-c]pyridin-3-yl]-N-methylformamido}ethyl)carbamate [Example 281]	1 to 25	> 10	< 100	–	–	–
